The text below walks through data of paper PMC2802001, “Binding of Natural and Synthetic Polyphenols to Human Dihydrofolate Reductase” (International Journal of Molecular Sciences, 2009).

Values joined by “and” are separate entries in the source; they are usually repeats but may differ in a detail not shown here. Equal entries are not always repeated. “Also recorded” adds a separate entry of the source.

Data set [1] deals with T1, human DHFR (Homo sapiens, UniProt P00374).
T1 construct: purchased Sigma
T1 sequence (P00374 1-187): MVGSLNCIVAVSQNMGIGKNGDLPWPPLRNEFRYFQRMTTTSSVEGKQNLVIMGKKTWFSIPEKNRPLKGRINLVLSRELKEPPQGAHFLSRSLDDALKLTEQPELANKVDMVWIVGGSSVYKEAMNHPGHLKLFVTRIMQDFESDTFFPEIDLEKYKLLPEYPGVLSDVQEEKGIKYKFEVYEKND
Nature of the data set: Fluorescence titration (quenching of tryptophan fluorescence) for binding to free DHFR. Conditions: for Kd / Binding to human DHFR (effect on enzyme fluorescence), in words: fluorescence quenching; for Kd: excitation 290 nm, enzyme 0.1 μM, pH 7.4, read-out: KD, dissociation constant for binding to human DHFR. As to the method: Highly purified tea polyphenols EGCG (>95%), ECG (>98%), EGC (>98%), and EC (>98%) were purchased from Sigma Chemical Co. (Madrid, Spain). Qgal, Qglc, Qrha and Qxyl were form Fluka (Madrid, Spain). […] To synthesize TMECG-QM, a TMECG solution (0.5 mM) in phosphate buffered saline (PBS), pH 7.0, was alkalinize at pH 8.5 with NaOH. The reaction was followed spectrophotometrically at 470 nm and, after completion, the sample was neutralized by adding HCl. Recombinant human DHFR was purchased from Sigma and its concentration was determined by MTX titration of enzyme fluorescence.
The fluorescence of DHFR is reduced on binding of substrates and inhibitors, and this property may be used as a convenient method for determining both the enzyme concentration and the dissociation constants of enzyme-ligands complexes. Dissociation constants for the binding of polyphenols to free DHFR were determined by fluorescence titration in an automatic-scanning Perkin-Elmer LS50B spectrofluorimeter with 1.0 cm light path cells and equipped with a 150W xenon (XBO) light source. The formation of the binary complex between the enzyme and the ligand was followed by measuring the quenching of tryptophan fluorescence of the enzyme upon addition of microliter volumes of a concentrated stock solution of ligand. Fluorescence emission spectra were recorded when DHFR fluorescence was excited at 290 nm. All measurements were corrected for dilution and the data from the titration curves were fitted as described previously. Titrations were performed in a buffer containing 2-(N-morpholino)ethanesulfonic acid (Mes, 0.025 M), sodium acetate (0.025 M), tris(hydroxymethyl)aminomethane (Tris 0.05 M), and NaCl (0.1 M), at pH 7.4.

Data set [2] concerns the target T1, human DHFR. Nature of the data set: Human DHFR activity assayed in the presence of tea catechins. Format: biochemical. The procedure: In order to detect which components of these extracts were responsible for such inhibition, human DHFR activity was assayed in the presence of EC, EGC, ECG or EGCG. […] The effective binding of ECG to free human DHFR was determined by following the decrease in enzyme fluorescence that occurs after formation of the enzyme-inhibitor complex (Figure 3).

The subject of data set [3] is chicken liver DHFR. The arrangement: method as in PMID 15781612. Conditions: cited from earlier work.
The test system of data set [4] is bovine liver DHFR. The arrangement: method as in PMID 15781612. Conditions: cited from earlier work.
Details of data set [5]: method as in PMID 18324763. The settings on record: cited from earlier work.
Data set [6] can be described thus: Stability of TMECG in solution at neutral and alkaline pH. Format: physicochemical. The procedure: Despite the excellent anticancer properties of tea catechins, they have at least one great limitation: their poor bioavailability. The reduced availability of catechins is related with their low stability in neutral or slightly alkaline solutions and their poor ability to cross cellular membranes. […] This synthetic catechin also bound human DHFR with an effective dissociation constant of 2.1 ± 0.2 μM (Figure 5; Table 1). […] By analogy with the oxidation of quercetin in alkaline solution [19], the proposed structure for this compound is depicted in Figure 6 and was identified as a quinone methide (TMECG-QM) with an open structure.
Highly purified tea polyphenols EGCG (>95%), ECG (>98%), EGC (>98%), and EC (>98%) were purchased from Sigma Chemical Co. (Madrid, Spain). Qgal, Qglc, Qrha and Qxyl were form Fluka (Madrid, Spain). TMECG was successfully synthesized (70% recovery) from catechin with the subsequent inversion of the stereochemistry at C-3 and by reaction of with 3,4,5-trimethoxybenzoylchloride (Sigma). To synthesize TMECG-QM, a TMECG solution (0.5 mM) in phosphate buffered saline (PBS), pH 7.0, was alkalinize at pH 8.5 with NaOH. The reaction was followed spectrophotometrically at 470 nm and, after completion, the sample was neutralized by adding HCl. Recombinant human DHFR was purchased from Sigma and its concentration was determined by MTX titration of enzyme fluorescence.

Data set [7] concerns different cancer cell lines. The arrangement: method as in PMID 18324763. Conditions: cited from earlier work.

The Kd is the concentration at which binding is half-saturated. Turning to `O=C(OC1Cc2c(O)cc(O)cc2OC1c1ccc(O)c(O)c1)c1cc(O)c(O)c(O)c1` (single isomer, unassigned; (-)) [ECG, (-)-epicatechin gallate], in data set [1], the dissociation constant Kd is 1800 nM and 1780 nM. Moreover, the “Inhibition of human DHFR activity, in words” value (shortened to “Inhibition … in words”) in data set [2] is “potent inhibitors”.

`Oc1cc(O)c2c(c1)OC(c1cc(O)c(O)c(O)c1)C(O)C2` (single isomer, unassigned; (-)) [EGC, (-)-epigallocatechin]: in data set [1], the “Binding to human DHFR (effect on enzyme fluorescence), in words” value is on record as “did not bind”. Moreover, the “Inhibition … in words” value in data set [2] is “did not inhibit”.

For `Oc1cc(O)c2c(c1)O[C@H](c1ccc(O)c(O)c1)[C@H](O)C2` [EC, (-)-epicatechin], the “Binding to human DHFR (effect on enzyme fluorescence), in words” value in data set [1] was “did not modify the emission spectra; also recorded: did not bind”. For the same compound, the “Inhibition … in words” value in data set [2] is recorded as “did not inhibit”.

Turning to `O=C(O[C@@H]1Cc2c(O)cc(O)cc2O[C@@H]1c1cc(O)c(O)c(O)c1)c1cc(O)c(O)c(O)c1` [EGCG, (-)-epigallocatechin gallate], in data set [1], the Kd was 900 nM and 920 nM. In addition, the “Type of inhibition of DHF reduction” value in data set [3] is recorded as “classical, reversible, competitive inhibitor”; in data set [4] it was “slow-binding inhibitor”. In data set [2], the “Inhibition … in words” value is given as “potent inhibitors”.

For `O=c1c(O[C@@H]2O[C@H](CO)[C@H](O)[C@H](O)[C@H]2O)c(-c2ccc(O)c(O)c2)oc2cc(O)cc(O)c12` [Qgal, quercetin-3-D-galactoside], in data set [1], the Kd was 22800 ± 3200 nM.

Regarding `O=c1c(O[C@@H]2O[C@H](CO)[C@@H](O)[C@H](O)[C@H]2O)c(-c2ccc(O)c(O)c2)oc2cc(O)cc(O)c12` [Qglc, quercetin-3-β-D-glucoside], the Kd in data set [1] was 102000 ± 9000 nM.

As for `CC1OC(Oc2c(-c3ccc(O)c(O)c3)oc3cc(O)cc(O)c3c2=O)C(O)C(O)C1O` (stereo not drawn) [Qrha, quercetin-3-rhamnoside], in data set [1], the Kd came to 17200 ± 2400 nM.

In the case of `O=c1c(OC2OCC(O)C(O)C2O)c(-c2ccc(O)c(O)c2)oc2cc(O)cc(O)c12` [Qxyl, quercetin-3-D-xyloside], the dissociation constant (Kd) in data set [1] is 600 nM and 590 nM.

For `COc1cc(C(=O)O[C@@H]2Cc3c(O)cc(O)cc3OC2c2ccc(O)c(O)c2)cc(OC)c1OC` (stereo partly drawn) [TMECG, 3-O-(3,4,5-trimethoxybenzoyl)-(-)-epicatechin], the Bioavailability in vitro result in data set [5] was “high bioavailability in vitro”. In addition, the “Stability at alkaline pH” value in data set [6] (alkaline pH, band at 470 nm) was “rapidly evolves to an orange compound”. The “Stability at neutral pH” value in data set [6] (neutral pH) is listed as “highly stable”. For the same compound, in data set [1], the Kd stood at 2100 ± 200 nM. Besides, the Antiproliferative activity result in data set [7] is “significant antiproliferative activity”.

Consider `COc1cc(C(=O)O[C@H](Cc2c(O)cc(O)cc2O)/C(O)=C2/C=CC(=O)C(O)=C2)cc(OC)c1OC` [TMECG-QM], for which, in data set [1] (compared with EGCG, ECG or TMECG), the “Affinity for human DHFR relative to EGCG, ECG or TMECG” value was “more than two-order of magnitude more strongly”. In addition, the “Affinity for human DHFR relative to MTX” value in data set [1] (compared with MTX) is recorded as “forty-times less”.
